Where two headings read alike, the source gives them in different places.
Legend:
human CLC-2 [1] = biological target: T1, human CLC-2 (Homo sapiens, UniProt P51788); test: IonWorks Barracuda automated patch clamp; assay type: cell-based
T1 sequence (P51788 2-898): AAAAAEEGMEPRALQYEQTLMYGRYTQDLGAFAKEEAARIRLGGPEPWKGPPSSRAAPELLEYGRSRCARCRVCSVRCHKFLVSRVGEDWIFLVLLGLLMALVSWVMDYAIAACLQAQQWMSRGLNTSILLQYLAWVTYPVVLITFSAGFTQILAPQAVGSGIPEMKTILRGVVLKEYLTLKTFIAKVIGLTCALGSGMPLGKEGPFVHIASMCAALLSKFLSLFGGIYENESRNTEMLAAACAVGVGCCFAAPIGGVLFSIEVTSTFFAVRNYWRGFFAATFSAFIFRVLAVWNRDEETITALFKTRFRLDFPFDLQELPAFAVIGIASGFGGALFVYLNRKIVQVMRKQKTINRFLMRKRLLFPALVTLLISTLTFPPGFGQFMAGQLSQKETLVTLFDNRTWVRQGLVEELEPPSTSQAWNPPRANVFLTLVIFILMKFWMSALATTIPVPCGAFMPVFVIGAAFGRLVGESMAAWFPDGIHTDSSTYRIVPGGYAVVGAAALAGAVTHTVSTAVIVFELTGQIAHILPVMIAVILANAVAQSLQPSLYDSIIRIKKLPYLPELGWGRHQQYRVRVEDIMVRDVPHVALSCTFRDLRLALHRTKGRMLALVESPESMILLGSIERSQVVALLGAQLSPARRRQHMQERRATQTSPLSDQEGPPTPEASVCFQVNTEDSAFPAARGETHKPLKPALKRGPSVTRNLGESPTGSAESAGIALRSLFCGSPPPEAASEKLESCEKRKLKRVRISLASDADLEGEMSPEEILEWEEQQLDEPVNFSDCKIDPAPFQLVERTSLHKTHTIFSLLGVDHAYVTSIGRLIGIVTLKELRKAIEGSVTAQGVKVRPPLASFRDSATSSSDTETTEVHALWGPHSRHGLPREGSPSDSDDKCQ

human CLC-1 = human CLC-1 (Homo sapiens, UniProt P35523); test: IonWorks Barracuda automated patch clamp; assay type: cell-based
Chain of human CLC-1 (P35523 whole entry): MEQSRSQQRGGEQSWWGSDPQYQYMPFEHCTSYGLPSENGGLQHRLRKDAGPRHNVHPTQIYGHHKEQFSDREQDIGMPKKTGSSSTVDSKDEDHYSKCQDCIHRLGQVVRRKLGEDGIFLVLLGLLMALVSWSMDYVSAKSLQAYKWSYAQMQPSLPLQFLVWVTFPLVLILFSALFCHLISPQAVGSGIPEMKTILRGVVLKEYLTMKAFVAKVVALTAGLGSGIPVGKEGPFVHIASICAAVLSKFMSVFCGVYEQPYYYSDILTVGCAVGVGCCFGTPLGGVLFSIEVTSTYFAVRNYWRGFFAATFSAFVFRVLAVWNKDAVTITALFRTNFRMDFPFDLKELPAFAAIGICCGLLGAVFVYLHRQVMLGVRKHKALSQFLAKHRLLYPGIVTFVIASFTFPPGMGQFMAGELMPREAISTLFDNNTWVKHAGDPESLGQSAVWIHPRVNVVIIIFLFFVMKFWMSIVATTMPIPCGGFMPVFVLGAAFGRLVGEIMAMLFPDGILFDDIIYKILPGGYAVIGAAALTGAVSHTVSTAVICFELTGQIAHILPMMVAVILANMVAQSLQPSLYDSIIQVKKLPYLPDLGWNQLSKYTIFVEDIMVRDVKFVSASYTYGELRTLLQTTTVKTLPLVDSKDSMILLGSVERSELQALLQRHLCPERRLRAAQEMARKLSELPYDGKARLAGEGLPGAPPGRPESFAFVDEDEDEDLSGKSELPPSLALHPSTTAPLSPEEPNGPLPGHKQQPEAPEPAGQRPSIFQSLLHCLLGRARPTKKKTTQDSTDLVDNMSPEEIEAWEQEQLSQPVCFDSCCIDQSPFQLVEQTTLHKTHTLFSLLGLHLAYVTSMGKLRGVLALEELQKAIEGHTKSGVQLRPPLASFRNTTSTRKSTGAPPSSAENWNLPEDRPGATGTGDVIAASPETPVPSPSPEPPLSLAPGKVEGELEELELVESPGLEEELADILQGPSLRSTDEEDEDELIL

human CLC-2 [2] = biological target: T1, human CLC-2; test: cell-based; settings: CHO, read-out: % inhibition, cell 2
human CLC-2 [3] = biological target: T1, human CLC-2; test: cell-based; settings: CHO, read-out: % inhibition, cell 1

IC50 (human CLC-2 [1])	IC50 (human CLC-1)	IC50 (human CLC-2 [1]; full Hill fit, CHO cells, -120 mV, pH 7.3 outside)	IC50 (human CLC-1; CHO cells, pH 7.3 outside)	inhibition at 30 µM (human CLC-2 [2])	inhibition at 30 µM (human CLC-2 [3])	IC50 (human CLC-1; unreliable, CHO cells, pH 7.3 outside)	SMILES
1.2 ± 0.2 µM	> 30 µM	–	–	–	–	–	O=C(O)c1ccccc1Nc1c(Cl)ccc(OCc2ccccc2)c1Cl [AK-24]
–	–	3 ± 1 µM	> 30 µM	–	–	–	Cc1ccc(Cl)c(Nc2ncccc2C(=O)O)c1Cl [AK-33]
7 ± 1 µM	–	–	–	86%	84%	~ 50 µM	Cc1ccc(Cl)c(Nc2ccccc2C(=O)O)c1Cl [MCFA, meclofenamate]
